Data as given in PubChem BioAssay AID449762 (Southern Research Specialized Biocontainment Screening …, 2010).
Results filed as inconclusive are left out.

Test system: M. tuberculosis H37Rv growth inhibition, 7H9 media
Assay: M. tuberculosis growth inhibition, HTS (AID 449762);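 also: bacterial growth assessed after seven days of incubation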
Conditions: for IC90: measured here: IC90 growth inhibition

Structure (SMILES)	IC50 [µM]	IC90 [µM]
c1cc(Nc2cccc3nccnc23)c2nccnc2c1	9.75	23.2
O=C(Nc1nnc(C2=COCCO2)o1)c1ccc(Cc2ccccc2)cc1	3.26	9.81
CCC(C)Nc1ccc(NC(C)CC)cc1 (stereo unspecified)	1.12	1.69
COc1ccc(OC)c(CN2CCN(C(=O)CNC(=O)c3ccc(C(C)(C)C)cc3)CC2)c1	47.4	67.8
Cc1csc(NC(=S)Nc2cccc(Cl)c2)n1	2.76	6.01
CCCn1c(CC)nc([N+](=O)[O-])c1S(=O)(=O)c1ccccc1	7.8	22.6
COC(=O)CCCCC1SCC(NC(=O)c2ccccc2)C1=O (stereo unspecified)	8.79	15.4
Nc1ccc(N=Nc2ccccc2)c(N)n1	–	> 100
NC(=O)c1cccn1-c1ncc(C(F)(F)F)cc1Cl	6.8	16.6
Cn1c2ccccc2c2cc(C(=O)NNC(=O)CCl)sc21	1.72	3.91
CCOc1cccc2cc(C(=O)Nc3nccs3)c(=O)oc12	0.34	29.6
CC1CCN(C(=O)c2ccc(-c3ccccc3Cl)o2)CC1	17.9	65.8
Cc1ccc(-c2ccnc(=S)[nH]2)cc1	44.9	> 100
CCC(=O)N1c2ccc(S(=O)(=O)CCC(=O)N3CCn4c3nc3ccccc34)cc2CC1C (stereo unspecified)	9.28	19.5
C[CH2][Hg][S]c1ccccc1C(=O)O	0.34	0.81
COc1ccc(C(=O)OCC(=O)c2ccc(Br)s2)c(OC)c1	26	> 100
Cc1nn(Cc2ccccc2Cl)c2sc(C(=O)NCCCn3ccnc3)cc12	37.5	49.5
O=C(c1ccc(Br)cc1)C(CN1CCOCC1)c1ccccc1 (stereo unspecified)	4.73	9.41
O=C1c2ccccc2S(=O)(=O)c2cc(C(=O)N3CCN(c4c(Cl)cncc4Cl)CC3)ccc21	32	46.5
COc1ccc(N2CN=C3SCC(=O)N3C2)cc1	–	> 100
COc1cccc(NC(=S)/C(=C(\[O-])c2cc(C)n(-c3ccccc3F)c2C)[n+]2ccc(N(C)C)cc2)c1	55.9	70.9
Brc1ccc2c(c1)C(OC1CN3CCC1CC3)c1ccccc1CS2 (stereo unspecified)	25.2	28.4
Cc1ccccc1C1C(C#N)=C2N=C(N)c3c(sc4c3CCCCC4)N2C2=C1C(=O)CC(C)(C)C2 (stereo unspecified)	–	> 100
CCN(CC)c1ccc2c(Cl)c(Br)c(=O)oc2c1	13.7	43.4

Structure (SMILES)	IC50 [µM]	IC90 [µM]
O=C1CN(CC(=O)N2CCCCC2)c2ccccc2O1	23.6	27.4
COc1ccc(-n2c(-c3ccc(Cl)cc3)c[n+]3c2CCc2ccccc2-3)cc1	16.4	24.2
COC(=O)c1ccc2c(=O)[nH]c(CSc3nc(C)cs3)nc2c1	69	> 100
Cc1ccc2nc(/C(C#N)=C/c3cn[nH]c3-c3ccc(F)cc3)[nH]c2c1	20.9	> 100
O=C1CC(/C=C/c2ccc(Cl)cc2)=Nc2ccccc2N1	12.1	14.1
COc1ccc(-c2ccc(C#N)c(SCC(=O)OCc3ccccc3)n2)cc1OC	20.1	69.5
CCCCNc1c(-c2ccc(SC3CCCCC3)c(OC)c2)nc2ccc(C)cn12	11.4	12.8
COc1ccc(C2Oc3ccccc3C3=C2C(c2cccs2)n2ncnc2N3)cc1 (stereo unspecified)	51.2	> 100
N/C(=N\NC(=O)c1sccc1OCc1ccc(Cl)cc1Cl)c1ccccn1	15.7	46
CCOC(=O)c1cc(-c2ccc(N3CCOCC3)cc2)nn1-c1ccccc1	13.4	45.2
CCCOC(=O)c1ccc(-c2ccc(C=O)o2)cc1	0.82	> 100
O=C(N/N=C(\c1ccccc1)c1ccccn1)c1ccccc1Cl	3.65	22.1
O=c1[nH]c(=O)n(Cc2ccccc2)c2nc(-c3ccc(Oc4ccc(F)cc4)c([N+](=O)[O-])c3)n(CCO)c12	24.4	> 100
CC1CCc2c(C(=O)Nc3nccs3)csc2C1 (stereo unspecified)	7.27	22.8
O=C(OCC#CCSc1nnc(-c2cccc3ccccc23)o1)c1cccs1	35.5	63.9
c1ccc(CSc2ccc(-c3ccccn3)nn2)cc1	23.4	26.9
Clc1ccc(SCc2cc(N3CCOCC3)nc(-c3ccccn3)n2)cc1	0.92	6.27
CCSc1ncc(/C=N/Nc2ccccc2)n1C	89.3	> 100
Clc1nc2c(-c3ccccc3)nnn2c2ccccc12	9.39	16.6
O=C(Cc1ccc([N+](=O)[O-])cc1)Nc1cc(C(F)(F)F)cc(C(F)(F)F)c1	2.74	3.12
CC(=O)c1ccc(N2CCC(c3cc(-c4ccc(Cl)cc4Cl)n[nH]3)CC2)c([N+](=O)[O-])c1	18.2	26.1
CCc1noc(C)c1C(=O)Nc1nc(-c2ccc(F)cc2)c(C)s1	8.8	36.9
CC(C)(C)OC(=O)NCCCCCc1nnc(SCc2ccc(F)cc2)o1	14.2	48.2
